Reference: patent US11491232B2, “Lactuloside compounds and preparation and use thereof” (Fruithy Holdings Limited, priority 2017, dated 2022)

Key:
[1] = Test on stability in mediums in vitro (buffer solutions with different pH, simulated intestinal fluid, simulated gastric fluid); format: physicochemical
Experimental: At 37° C., Compound 17 was incubated in different mediums (buffer solutions with different pH, a simulated intestinal fluid containing pancreatin, and simulated gastric fluid containing pepsin).
(§1) Other typical example compounds were tested for stability according to the above method, and the test results are shown in Table 8 below.

colon flora = test: Stability in the presence of colon flora (content in colon of rat); format: in vitro ADME, SD rat; conditions: male, rat, pH 6.8
Experimental: A phosphate buffer solution with a pH of 7.0 was formulated, and then CO2 was introduced to the solution to adjust the pH to 6.8. Then, the content in colon of a male SD rat (body weight: 180-220 g) was placed in a water bath at 37° C., and added into the phosphate buffer solution with a pH of 6.8 as prepared above under the protection of N2 to a concentration of 20% (w/v). The buffer solution was kept in an oxygen-free environment. Then, the test Compound 17 was added to the buffer solution, and the solution was stirred uniformly.
Supernatant was analyzed with HPLC, where the amount of each ingredient was calculated by normalization.
Note: in the above table, “T14.148 (%)” represents the percentage of peak area of the material with a retention time of 14.148 min “T14.713 (%)” represents the percentage of peak area of the material with a retention time of 14.713 min. “T16.392 (%)” represents the percentage of peak area of the material with a retention time of 16.392 min. “T22.624 (%)” represents the percentage of peak area of the material with a retention time of 22.624 min.
as §1

SMILES: C[C@]12C=CC(=O)C=C1CC[C@@H]1[C@@H]2C(=O)C[C@@]2(C)[C@H]1CC[C@]2(O)C(=O)COC1(CO)O[C@H](CO)[C@@H](O[C@@H]2O[C@H](CO)[C@H](O)[C@H](O)[C@H]2O)[C@@H]1O (stereo partly drawn) [Compound 17, 17-hydroxyl-21-{[4-O-(β-D-galactopyranosyl)-D-fructofuranosyl]oxy}pregna-1,4-diene-3,11,20-trione]
- Compound 17 (%) ([1]; Acetate buffer solution, pH 4.0, 37° C., 0 h): 99.6%
- Compound 17 (%) ([1]; Acetate buffer solution, pH 4.0, 37° C., 0.5 h): 99.6%
- Compound 17 (%) ([1]; Acetate buffer solution, pH 4.0, 37° C., 1 h): 99.5%
- Compound 17 (%) ([1]; Acetate buffer solution, pH 4.0, 37° C., 1.5 h): 99.4%
- Compound 17 (%) ([1]; Acetate buffer solution, pH 4.0, 37° C., 4 h): 99.2%
- Compound 17 (%) ([1]; Acetate buffer solution, pH 4.0, 37° C., 20 h): 97.1%
- Compound 17 (%) ([1]; Acetate buffer solution, pH 4.0, 37° C., 24 h): 96.5%
- Compound 17 (%) ([1]; Hydrochloric acid solution, pH 1.2, 37° C., 0 h): 96.0%
- Compound 17 (%) ([1]; Hydrochloric acid solution, pH 1.2, 37° C., 0.5 h): 47.1%
- Compound 17 (%) ([1]; Hydrochloric acid solution, pH 1.2, 37° C., 1 h): 22.1%
- Compound 17 (%) ([1]; Hydrochloric acid solution, pH 1.2, 37° C., 2 h): 4.5%
- Compound 17 (%) ([1]; Hydrochloric acid solution, pH 1.2, 37° C., 3 h): 1.0%
- Compound 17 (%) ([1]; Hydrochloric acid solution, pH 2.0, 37° C., 0 h): 99.7%
- Compound 17 (%) ([1]; Hydrochloric acid solution, pH 2.0, 37° C., 0.5 h): 93.3%
- Compound 17 (%) ([1]; Hydrochloric acid solution, pH 2.0, 37° C., 1 h): 86.5%
- Compound 17 (%) ([1]; Hydrochloric acid solution, pH 2.0, 37° C., 1.5 h): 80.1%
- Compound 17 (%) ([1]; Hydrochloric acid solution, pH 2.0, 37° C., 2 h): 74.6%
- Compound 17 (%) ([1]; Hydrochloric acid solution, pH 2.0, 37° C., 3 h): 64.5%
- Compound 17 (%) ([1]; Hydrochloric acid solution, pH 2.0, 37° C., 4 h): 55.3%
- Compound 17 (%) ([1]; Hydrochloric acid solution, pH 2.0, 37° C., 8 h): 30.8%
- Compound 17 (%) ([1]; Hydrochloric acid solution, pH 2.0, 37° C., 24 h): 2.5%
- Compound 17 (%) ([1]; Phosphate buffer solution, pH 5.8, 37° C., 0 h): 99.5%
- Compound 17 (%) ([1]; Phosphate buffer solution, pH 5.8, 37° C., 1 h): 97.3%
- Compound 17 (%) ([1]; Phosphate buffer solution, pH 5.8, 37° C., 6 h): 99.4%
- Compound 17 (%) ([1]; Phosphate buffer solution, pH 5.8, 37° C., 8 h): 99.5%
- Compound 17 (%) ([1]; Phosphate buffer solution, pH 5.8, 37° C., 33 h): 99.3%
- Compound 17 (%) ([1]; Phosphate buffer solution, pH 6.8, 37° C., 0 h): 97.3%
- Compound 17 (%) ([1]; Phosphate buffer solution, pH 6.8, 37° C., 1 h): 97.5%
- Compound 17 (%) ([1]; Phosphate buffer solution, pH 6.8, 37° C., 6 h): 99.0%
- Compound 17 (%) ([1]; Phosphate buffer solution, pH 6.8, 37° C., 8 h): 99.0%
- Compound 17 (%) ([1]; Phosphate buffer solution, pH 6.8, 37° C., 33 h): 97.6%
- Compound 17 (%) ([1]; Phosphate buffer solution, pH 7.8, 37° C., 0 h): 97.5%
- Compound 17 (%) ([1]; Phosphate buffer solution, pH 7.8, 37° C., 1 h): 97.6%
- Compound 17 (%) ([1]; Phosphate buffer solution, pH 7.8, 37° C., 6 h): 97.6%
- Compound 17 (%) ([1]; Phosphate buffer solution, pH 7.8, 37° C., 8 h): 97.6%
- Compound 17 (%) ([1]; Phosphate buffer solution, pH 7.8, 37° C., 33 h): 97.7%
- Compound 17 (%) ([1]; Simulated gastric fluid (containing pepsin) (pH 2.0), 37° C., 0 h): 97.0%
- Compound 17 (%) ([1]; Simulated gastric fluid (containing pepsin) (pH 2.0), 37° C., 0.5 h): 53.6%
- Compound 17 (%) ([1]; Simulated gastric fluid (containing pepsin) (pH 2.0), 37° C., 1 h): 28.9%
- Compound 17 (%) ([1]; Simulated gastric fluid (containing pepsin) (pH 2.0), 37° C., 1.5 h): 15.6%
- Compound 17 (%) ([1]; Simulated gastric fluid (containing pepsin) (pH 2.0), 37° C., 2 h): 7.0%
- Compound 17 (%) ([1]; Simulated gastric fluid (containing pepsin) (pH 2.0), 37° C., 3 h): 2.1%
- Compound 17 (%) ([1]; Simulated intestinal fluid (containing pancreatin) (pH 6.8), 37° C., 0 h): 97.6%
- Compound 17 (%) ([1]; Simulated intestinal fluid (containing pancreatin) (pH 6.8), 37° C., 1 h): 97.4%
- Compound 17 (%) ([1]; Simulated intestinal fluid (containing pancreatin) (pH 6.8), 37° C., 6 h): 97.7%
- Compound 17 (%) ([1]; Simulated intestinal fluid (containing pancreatin) (pH 6.8), 37° C., 8 h): 97.7%
- Compound 17 (%) ([1]; Simulated intestinal fluid (containing pancreatin) (pH 6.8), 37° C., 33 h): 96.2%
- Compound 17 (%) ([1]; Water (pH 6.2), 37° C., 0 h): 97.6%
- Compound 17 (%) ([1]; Water (pH 6.2), 37° C., 1 h): 97.6%
- Compound 17 (%) ([1]; Water (pH 6.2), 37° C., 6 h): 97.6%
- Compound 17 (%) ([1]; Water (pH 6.2), 37° C., 8 h): 98.2%
- Compound 17 (%) ([1]; Water (pH 6.2), 37° C., 33 h): 98.0%
- percentage of remaining Compound 17 ([1]; pH 2.0 or higher, within 1.5 hours, 37° C.): greater than 80%
- Compound 17 (%) (colon flora; SD, 0 h): 84.8%
- T14.148 (%) (percentage of peak area of the material with a retention time of 14.148 min) (colon flora; SD, 0 h): 13.5%
- T22.624 (%) (percentage of peak area of the material with a retention time of 22.624 min) (colon flora; SD, 0 h): 0.0%
- Compound 17 (%) (colon flora; SD, 1 h): 49.0%
- T14.148 (%) (percentage of peak area of the material with a retention time of 14.148 min) (colon flora; SD, 1 h): 42.5%
- T22.624 (%) (percentage of peak area of the material with a retention time of 22.624 min) (colon flora; SD, 1 h): 0.0%
- Compound 17 (%) (colon flora; SD, 2 h): 25.3%
- T22.624 (%) (percentage of peak area of the material with a retention time of 22.624 min) (colon flora; SD, 2 h): 0.0%
- T22.624 (%) (percentage of peak area of the material with a retention time of 22.624 min) (colon flora; SD, 3 h): 0.0%
- Compound 17 (%) (colon flora; SD, 20 h): 0.0%
- T22.624 (%) (percentage of peak area of the material with a retention time of 22.624 min) (colon flora; SD, 20 h): 7.8%
- Prednisone (%) (released from Compound 17) (colon flora; Sprague-Dawley (SD), 0 h): 1.7%
- T14.713 (%) (percentage of peak area of the material with a retention time of 14.713 min) (colon flora; Sprague-Dawley (SD), 0 h): 0.0%
- T16.392 (%) (percentage of peak area of the material with a retention time of 16.392 min) (colon flora; Sprague-Dawley (SD), 0 h): 0.0%
- Prednisone (%) (released from Compound 17) (colon flora; Sprague-Dawley (SD), 1 h): 8.1%
- T14.713 (%) (percentage of peak area of the material with a retention time of 14.713 min) (colon flora; Sprague-Dawley (SD), 1 h): 0.0%
- T16.392 (%) (percentage of peak area of the material with a retention time of 16.392 min) (colon flora; Sprague-Dawley (SD), 1 h): 0.0%
- Prednisone (%) (released from Compound 17) (colon flora; Sprague-Dawley (SD), 2 h): 14.7%
- T14.148 (%) (percentage of peak area of the material with a retention time of 14.148 min) (colon flora; Sprague-Dawley (SD), 2 h): 59.1%
- T14.713 (%) (percentage of peak area of the material with a retention time of 14.713 min) (colon flora; Sprague-Dawley (SD), 2 h): 0.0%
- T16.392 (%) (percentage of peak area of the material with a retention time of 16.392 min) (colon flora; Sprague-Dawley (SD), 2 h): 0.0%
- Prednisone (%) (released from Compound 17) (colon flora; Sprague-Dawley (SD), 3 h): 21.2%
- T14.148 (%) (percentage of peak area of the material with a retention time of 14.148 min) (colon flora; Sprague-Dawley (SD), 3 h): 65.5%
- T14.713 (%) (percentage of peak area of the material with a retention time of 14.713 min) (colon flora; Sprague-Dawley (SD), 3 h): 0.0%
- T16.392 (%) (percentage of peak area of the material with a retention time of 16.392 min) (colon flora; Sprague-Dawley (SD), 3 h): 0.0%
- Prednisone (%) (released from Compound 17) (colon flora; Sprague-Dawley (SD), 20 h): 39.7%
- T14.148 (%) (percentage of peak area of the material with a retention time of 14.148 min) (colon flora; Sprague-Dawley (SD), 20 h): 12.7%
- T14.713 (%) (percentage of peak area of the material with a retention time of 14.713 min) (colon flora; Sprague-Dawley (SD), 20 h): 19.2%
- T16.392 (%) (percentage of peak area of the material with a retention time of 16.392 min) (colon flora; Sprague-Dawley (SD), 20 h): 6.4%
- Compound 17 (%) (colon flora; Sprague-Dawley, 3 h): 11.3%
- percentage of the compound degraded (colon flora; Sprague-Dawley, 3 h): about 90%
